Measured values from patent US6683079B2, “3-(amino-or aminoalkyl) pyridinone derivatives and their use for the treatment of HIV related diseases” (Centre National de la Recherche Scientifique, priority 1998, dated 2004).

The compounds below were run on HIV-1 strain IIIB (assay: Retrovirucidal effect on HIV-1 strain IIIB (Table 3)). Conditions: pIC50=-log IC50, IC50 in M.
Assay type: cell-based
Procedure: HIV-1 viral suspensions were obtained by coculture of MT4 cells and H9 cells chronically infected by HIV-ILai isolate. 200 μl of a cell supernatant containing viral particles (HIV-ILai: 100 TCID50) were incubated at room temperature with various concentrations of different inhibitors. After 3 hours, virions were washed through 0.02 μm anopore membrane in 1.5 mL Vectaspin tube (Whatman) for 10 minutes at 5 000 g. Each of the three subsequent washes was performed in the same conditions after the viral concentrate was refilled with 500 μL of RPMI medium. Then, the viral concentrate was readjusted to the initial volume with RPMI plus 10% foetal calf serum (FCS). The residual infectivity was assayed on P4 cells as described by CHARNEAU et al. (1994, J. Mol. Biol., 241, 651-662). Briefly, P4 cells were plated using 100 μL of DMEM medium plus 10% FCS in 96 plate multi-wells at 20×10^5 cells per mL. After overnight incubation at 37° C., the supernatant was discarded and the viral preparation (200 μL) was added. One day later the wells were washed three times in PBS. Each well was refilled with 200 μL of a reaction buffer containing 50 mM Tris-HCl pH 8.5, 100 mM 2-mercaptoethanol, 0.05% Triton X-100 and 5 mM 4-methylumbelliferyl β-D-galactopyranoside (MUG). After 3 hours at 37° C., the level of the reaction was measured in a fluorescence microplate reader.
The retrovirucidal effect of each pyridinone derivative listed in table 3 has been assayed according to the teachings of example 2, excepted that the anti-viral effect has been tested on the two following HIV-1 strains:
a) HIV-1 strain IIIB (see example 2);
With `CCc1c(C)[nH]c(=O)c(N(C)C)c1C(=O)c1cccc(-c2ccccc2)c1` [Compound 196] the “HIV1 pIC50 strain IIIB” value was 6.411.
`CCc1c(C)[nH]c(=O)c(N(C)C)c1C(=O)c1cccc(COc2ccccc2)c1` [Compound 143] was tested, and the “HIV1 pIC50 strain IIIB” value was 7.421.
`CCc1c(C)[nH]c(=O)c(N(C)C)c1Cc1cccc(O)c1` [Compound 122] was tested, and the “HIV1 pIC50 strain IIIB” value was 7.196.
With `Cc1cc(C)cc(Cc2c(C)c(C(C)C)[nH]c(=O)c2N(C)C)c1` [Compound 119] the “HIV1 pIC50 strain IIIB” value was 6.114.
In the case of `CCc1c(Cc2cc(C)cc(C)c2)c(N(C)C)c(=O)n(-c2ccccc2)c1C` [Compound 152], the “HIV1 pIC50 strain IIIB” value is reported as 4.21.
`CCc1c(C)[nH]c(=O)c(N(C)CCC(C)C)c1Cc1cccc(C)c1` [Compound 155] was tested, and the “HIV1 pIC50 strain IIIB” value was 7.514.
`CCc1c(C)[nH]c(=O)c(N)c1Cc1cccc2ccccc12` [Compound 113] was tested, and the “HIV1 pIC50 strain IIIB” value was 5.273.
With `CCc1c(C)[nH]c(=O)c(N)c1C(=O)c1cc(F)cc(C(F)(F)F)c1` [Compound 182] the “HIV1 pIC50 strain IIIB” value was 5.933.
With `CCc1c(C)[nH]c(=O)c(N(C)C)c1C(=O)c1ccc2c(c1)OCCO2` [Compound 112] the “HIV1 pIC50 strain IIIB” value was 6.394.
`CCc1c(C)[nH]c(=O)c(N(CCOC)CCOC)c1Cc1cccc(C)c1` [Compound 180] was tested, and the “HIV1 pIC50 strain IIIB” value was 5.988.
In the case of `CCc1c(C)[nH]c(=S)c(N(C)C)c1Cc1cc(C)cc(C)c1` [Compound 137], the “HIV1 pIC50 strain IIIB” value is reported as 7.658.
`CCCCc1cc(Cc2cc(C)cc(C)c2)c(N)c(=O)[nH]1` [Compound 89] was tested, and the “HIV1 pIC50 strain IIIB” value was 6.237.
For `CCc1c(C)[nH]c(=O)c(N(C)C)c1Cc1ccc(Cl)cc1` [Compound 55], the “HIV1 pIC50 strain IIIB” value was 6.651.
With `CCc1c(C)[nH]c(=O)c(N)c1Sc1cccc(Br)c1` [Compound 188] the “HIV1 pIC50 strain IIIB” value was 7.063.
For `Cc1cccc(C(=O)c2c3c([nH]c(=O)c2N(C)C)CCC3)c1` [Compound 148], the “HIV1 pIC50 strain IIIB” value was 7.863.
With `CCc1c(C)[nH]c(=O)c(N(C)C)c1Cc1ccc2c(c1)OCCO2` [Compound 135] the “HIV1 pIC50 strain IIIB” value was 6.688.
With `CCc1c(C)[nH]c(=O)c(N(C)C)c1Cc1nccn1C` [Compound 88] the “HIV1 pIC50 strain IIIB” value was under 4.
In the case of `CCc1c(C)[nH]c(=O)c(N(C)CCOCc2ccccc2)c1Cc1cccc(C)c1` [Compound 144], the “HIV1 pIC50 strain IIIB” value is reported as 6.446.
With `CCc1c(C)[nH]c(=O)c(N(C)C)c1C(=O)Cc1cccc(C)c1` [Compound 127] the “HIV1 pIC50 strain IIIB” value was 4.174.
For `Cc1cc(C)cc(Cc2c(Cl)c[nH]c(=O)c2N(C)C)c1` [Compound 106], the “HIV1 pIC50 strain IIIB” value was 7.063.
With `CCc1c(C)[nH]c(=O)c(N)c1Cc1cc(Cl)cc(Cl)c1` [Compound 189] the “HIV1 pIC50 strain IIIB” value was 6.401.
With `CCOc1cccc(Cc2c(CC)c(C)[nH]c(=O)c2N(C)C)c1` [Compound 181] the “HIV1 pIC50 strain IIIB” value was 7.928.
For `CCc1c(C)[nH]c(=O)c(N(C)C)c1CN(C)c1cc(C)cc(C)c1` [Compound 133], the “HIV1 pIC50 strain IIIB” value was 4.94.
For `CCc1c(C)[nH]c(=O)c(N(C)C)c1Cc1ccc2c(c1)OCO2` [Compound 147], the “HIV1 pIC50 strain IIIB” value was 7.721.
`CCc1c(C)[nH]c(=O)c(N(C)C)c1C(=O)c1cccc(C)c1` [Compound 93] was tested, and the “HIV1 pIC50 strain IIIB” value was 8.721.
With `CCc1c(C)[nH]c(=O)c(N)c1Sc1cccc(C)c1` [Compound 159] the “HIV1 pIC50 strain IIIB” value was 7.011.
For `Cc1cccc(Cc2c3c([nH]c(=O)c2N)CCCC3)c1` [Compound 91], the “HIV1 pIC50 strain IIIB” value was 5.73.
For `CCc1[nH]c(=O)c(N(C)C)c(C(=O)c2cccc(C)c2)c1C` [Compound 108], the “HIV1 pIC50 strain IIIB” value was 7.005.
In the case of `CCc1c(C)[nH]c(=O)c(N)c1Cc1ccc2c(c1)OCO2` [Compound 141], the “HIV1 pIC50 strain IIIB” value is reported as 4.642.
For `Cc1cc(C)cc(Cc2c(Cl)c[nH]c(=O)c2N)c1` [Compound 105], the “HIV1 pIC50 strain IIIB” value was 4.943.
In the case of `Cc1cccc(C(=O)c2c(C)c(C)[nH]c(=O)c2N)c1` [Compound 94], the “HIV1 pIC50 strain IIIB” value is reported as 5.153.
With `Cc1cccc(Cc2c3c([nH]c(=O)c2N(C)C)CCCC3)c1` [Compound 92] the “HIV1 pIC50 strain IIIB” value was 7.807.
For `CCc1c(Cc2cc(C)cc(C)c2)c(N(C)C)c(=O)n(N)c1C` [Compound 153], the “HIV1 pIC50 strain IIIB” value was 6.749.
For `CCc1c(C)[nH]c(=O)c(N)c1C(=O)c1ccc2c(c1)OCCO2` [Compound 111], the “HIV1 pIC50 strain IIIB” value was under 4.
For `CCc1c(C)[nH]c(=O)c(N)c1C(=O)c1cccc(C(F)(F)F)c1` [Compound 140], the “HIV1 pIC50 strain IIIB” value was 5.766.
`CCc1c(C)[nH]c(=O)c(N)c1Cc1cccc(OC)c1` [Compound 120] was tested, and the “HIV1 pIC50 strain IIIB” value was 5.033.
With `CCc1c(C)[nH]c(=O)c(N)c1C(=O)c1ccc(Br)s1` [Compound 194] the “HIV1 pIC50 strain IIIB” value was 4.665.
For `CCc1c(C)[nH]c(=O)c(N(C)C)c1Cc1cccc2ccccc12` [Compound 116], the “HIV1 pIC50 strain IIIB” value was 6.627.
With `CCc1c(C)[nH]c(=O)c(N)c1C(=O)Cc1cccc(C)c1` [Compound 124] the “HIV1 pIC50 strain IIIB” value was 4.389.
`CCc1c(C)[nH]c(=O)c(N)c1C(=O)c1cc(Br)cs1` [Compound 186] was tested, and the “HIV1 pIC50 strain IIIB” value was 5.781.
In the case of `Cc1cccc(Cc2c3c([nH]c(=O)c2N)CCC3)c1` [Compound 131], the “HIV1 pIC50 strain IIIB” value is reported as 5.799.
In the case of `CCc1c(C)[nH]c(=O)c(N)c1C(=O)c1cc(Cl)cc(Cl)c1` [Compound 190], the “HIV1 pIC50 strain IIIB” value is reported as 7.757.
With `CCc1c(C)[nH]c(=O)c(N(C)C)c1Cc1ccc(OC)c(C)c1` [Compound 157] the “HIV1 pIC50 strain IIIB” value was 6.413.
With `Cc1cc(C)cc(Cc2c(C)c(C(C)C)[nH]c(=O)c2N)c1` [Compound 118] the “HIV1 pIC50 strain IIIB” value was 4.042.
`Cc1cccc(Cc2c3c([nH]c(=O)c2N(C)C)CCC3)c1` [Compound 132] was tested, and the “HIV1 pIC50 strain IIIB” value was 7.863.
In the case of `CCCc1cccc(Cc2c(CC)c(C)[nH]c(=O)c2N)c1` [Compound 103], the “HIV1 pIC50 strain IIIB” value is reported as 5.747.
With `CCc1c(C)[nH]c(=O)c(N)c1C(=O)c1ccc2c(c1)OCO2` [Compound 150] the “HIV1 pIC50 strain IIIB” value was 4.881.
In the case of `CCc1c(C)[nH]c(=O)c(N(C)C)c1C(=O)c1cc(F)cc(C(F)(F)F)c1` [Compound 183], the “HIV1 pIC50 strain IIIB” value is reported as 8.481.
In the case of `CCc1c(C)[nH]c(=O)c(NC)c1Cc1cccc(C(F)(F)F)c1` [Compound 139], the “HIV1 pIC50 strain IIIB” value is reported as 6.908.
For `CCc1c(C)[nH]c(=O)c(N(C)C)c1Cc1cccc(CO)c1` [Compound 110], the “HIV1 pIC50 strain IIIB” value was 7.783.
For `CCCCc1cc(Cc2cc(C)cc(C)c2)c(N(C)C)c(=O)[nH]1` [Compound 90], the “HIV1 pIC50 strain IIIB” value was 6.359.
`CCc1c(C)[nH]c(=O)c(N(C)C)c1C(=O)c1cccc(CO)c1` [Compound 128] was tested, and the “HIV1 pIC50 strain IIIB” value was 7.848.
In the case of `CCc1c(C)[nH]c(=O)c(N(C)C)c1C(=O)c1ccc2c(c1)OCO2` [Compound 151], the “HIV1 pIC50 strain IIIB” value is reported as 7.845.
With `CCc1c(C)[nH]c(=O)c(N)c1Cc1ccc(OC)c(C)c1` [Compound 156] the “HIV1 pIC50 strain IIIB” value was 4.934.
With `CCc1c(C)[nH]c(=O)c(N(CC)CC)c1C(=O)c1cccc(C)c1` [Compound 95] the “HIV1 pIC50 strain IIIB” value was 8.268.
With `Cc1cccc(C(=O)c2c3c([nH]c(=O)c2N)CCC3)c1` [Compound 142] the “HIV1 pIC50 strain IIIB” value was 4.889.
In the case of `CCc1c(C)[nH]c(=O)c(N)c1Cc1ccc2c(c1)OCCO2` [Compound 134], the “HIV1 pIC50 strain IIIB” value is reported as 4.056.

Same assay, conditions: retrovirucidal effect, pIC50=-log IC50 (M)
In the case of `CCc1c(C)[nH]c(=O)c(N(C)C)c1Cc1ccccc1Br` [Compound 203], the “HIV1 pIC50 strain IIIB” value is reported as 8.161.
`Cc1c[nH]c(=O)c(N)c1SCc1ccccc1` [Compound 198] was tested, and the “HIV1 pIC50 strain IIIB” value was 4.457.
For `CCc1c(C)[nH]c(=O)c(N)c1Cc1ccccc1Br` [Compound 202], the “HIV1 pIC50 strain IIIB” value was 5.715.
`CCc1c(C)[nH]c(=O)c(N)c1Oc1cc(C)cc(C)c1` [Compound 197] was tested, and the “HIV1 pIC50 strain IIIB” value was 7.307.
